Assay results from EP4772503A1, “LIPOIC ACID DERIVATIVE, VESICLE COMPOUND AND PREPARATION THEREFOR AND USE THEREOF” (Neuboron Medtech Research Institute Ltd., priority 2023, dated 2025).

Columns and labels:
[1] = Critical aggregation concentration by Nile Red fluorescence; type: physicochemical; conditions: Nile Red 1.0 µM, distilled water
Description: A mixture of Nile Red (at a concentration of 1.0 µM) and the corresponding BPA lipoic acid derivative (at a concentration of 0-20 mM) in distilled water was oscillated overnight under constant temperature conditions. The fluorescence emission intensity of Nile Red at 525 nm wavelength (λex = 485 nm) was measured using a FluoroMax-4 fluorometer. The critical aggregation concentration of the BPA lipoic acid derivative in aqueous medium was calculated from the intersection point of two linear regression equations.
The critical aggregation concentration (CAC) refers to the minimum concentration at which a substance forms aggregates in an aqueous solution. When the concentration of a surfactant or colloidal particle in an aqueous solution exceeds the critical aggregation concentration, they begin to self-assemble into aggregates due to intermolecular attractive forces. This process is referred to as aggregation or self-assembly.

[2] = DLS detection of grain size, PDI and zeta potential of vesicles; type: physicochemical; conditions: for PDI / d(nm) / zeta potential (mV): vesicles of the derivative, depolymerization and assembly repeated three times; for grain size of the vesicles: vesicles assembled once, pH below 7.2, FIG. 5
Description: • ① In this test example, the grain sizes of vesicle compounds formed by three compounds, LA-PEG2-BPA, LA-PEG4-BPA, and LA-PEG4-3-BPA, were detected.
Preparation of the vesicle nanoparticles to be detected for grain size in this test example includes: An appropriate amount of the corresponding compound was weighed and placed into a sample vial, double-distilled water was added, an appropriate amount of NaOH aqueous solution was added to adjust the pH to between 10 and 11 until the starting material was completely dissolved, followed by addition of an appropriate amount of hydrochloric acid to adjust the pH to below 7.2, thereby completing vesicle assembly.
② The lipoic acid derivatives were separately assembled into vesicles, including LA-PEG1-BPA (denoted as L^pB-1), LA-PEG2-BPA (denoted as L^pB-2), LA-PEG4-BPA (denoted as L^pB-3), LA-PEG8-BPA (denoted as L^pB-4), LA-PEG1-3-BPA (denoted as L^mB-1), LA-PEG2-3-BPA (denoted as L^mB-2), LA-PEG4-3-BPA (denoted as L^mB-3), and LA-PEG8-3-BPA (denoted as L^mB-4); the vesicle assembly method in this test example was based on the preparation method of the vesicle examples and depolymerization and assembly were repeatedly three times; the physicochemical properties of the self-assembled vesicles were detected, and the grain size, polymer dispersancy index (PDI), and zeta potential of the vesicles were detected using DLS (dynamic light scattering) technology. Table 1 […]

Row | SMILES | CAC [1] | PDI [2] | d(nm) [2] | zeta potential (mV) [2] | grain size of the vesicles [2]
1 | O=C(CCCCC1CCSS1)NCCOCCC(=O)NC(Cc1cccc(B(O)O)c1)C(=O)O (stereo not drawn) [L^mB-1] | 256 µM | 0.132 | 105.3 nm | -30.7 mV | –
2 | O=C(CCCCC1CCSS1)NCCOCCOCCC(=O)NC(Cc1cccc(B(O)O)c1)C(=O)O (stereo not drawn) [L^mB-2] | 254 µM | 0.102 | 149.1 nm | -28.61 mV | –
3 | O=C(CCCCC1CCSS1)NCCOCCOCCOCCOCCC(=O)NC(Cc1cccc(B(O)O)c1)C(=O)O (stereo not drawn) [L^mB-3] | 274 µM | 0.209 | 165.7 nm | -35.20 mV | approximately 114 nm
4 | O=C(CCCCC1CCSS1)NCCOCCOCCOCCOCCOCCOCCOCCOCCC(=O)NC(Cc1cccc(B(O)O)c1)C(=O)O (stereo not drawn) [L^mB-4] | 280 µM | 0.237 | 284.6 nm | -35.2 mV | –
5 | O=C(CCCCC1CCSS1)NCCOCCC(=O)NC(Cc1ccc(B(O)O)cc1)C(=O)O (stereo not drawn) [L^pB-1] | 243 µM | 0.107 | 98.9 nm | -32.5 mV | –
6 | O=C(CCCCC1CCSS1)NCCOCCOCCC(=O)NC(Cc1ccc(B(O)O)cc1)C(=O)O (stereo not drawn) [L^pB-2] | 248 µM | 0.015 | 144.7 nm | -30.9 mV | approximately 244 nm
7 | O=C(CCCCC1CCSS1)NCCOCCOCCOCCOCCOCCOCCOCCOCCC(=O)NC(Cc1ccc(B(O)O)cc1)C(=O)O (stereo not drawn) [L^pB-4] | 277 µM | 0.217 | 268.4 nm | -29.35 mV | –
